Measured values published in patent US20240027453A1, “METHOD FOR DETECTION AND QUANTITATIVE MONITORING OF INFECTIONS WITH HERPESVIRUSES” (The Trustees of Princeton University, priority 2020, published 2024).
Read-outs that look alike come from different tables or passages of the source.

Test system: HCMV
Assay type: cell-based
Settings: for UL36 (P16767) protein, numerical value of heatmap FIG. 6C / UL37 (P16778) protein, numerical value of heatmap FIG. 6C / UL122 (P19893) protein, numerical value of heatmap FIG. 6C / UL123 (P13202) protein, numerical value of heatmap FIG. 6C / IRS1 (P09715) protein, numerical value of heatmap FIG. 6C / TRS1 (P09695) protein, numerical value of heatmap FIG. 6C / UL13 (P16755) protein, numerical value of heatmap FIG. 6C: IE
Description: In example herpesvirus PRM assay methods shown herein, cell pellets were lysed in 2% SDS, 100 mM NaCl, 0.5 mM EDTA, 50 mM Tris, pH 8.2, and 50 μg of protein was reduced and alkylated with 25 mM TCEP and 50 mM CAM respectively for 20 min at 70° C. Proteins were then precipitated via methanol chloroform precipitation (Wessel & Flugg, Anal Biochem. 138(1):141-143, 1984), resuspended in 50 mM HEPES, pH 8.2 and digested overnight with trypsin (50:1 protein:enzyme w/w ratio). Digested peptides were desalted by SDB-RPS StageTip as previously described (Lum et al., Cell Syst., 7(6):[…], 2018; Greco et al., Methods Mol Biol 1410:39-63, 2016; Federspiel & Cristea, Methods Mol Biol., 1977:115-143, 2019).
Peptides (1.0 μg on column) were analyzed by LC-MS/MS using a Dionex Ultimate 3000 UHPLC coupled online to an EASYSpray ion source and a Q Exactive HF. Peptides were separated on an EASYSpray C18 column (75 μm×25 cm) heated to 50° C. using a linear gradient of 5% B to 32% B over 60 min at a flow rate of 250 nL/min and were ionized at 1.7 kv. Mobile phase A consisted of 0.1% FA in H2O and mobile phase B consisted of 0.1% FA, 2.9% H2O in ACN.
The PRM method was controlled by a peptide inclusion list with retention time windows of 6 min for selected precursor ions.
The PRM assay was developed and analyzed using the open-source software Skyline (Maclean et al., Bioinformatics 26(7):966-968, 2010). Summed area under the curve of 3-4 transitions per peptide was used for quantitation. Targeted peptides were normalized to host protein loading control peptides. Peptide values for each sample were scaled to the average of each peptide across all runs. The average of multiple peptides was used as the inferred value for the protein measurement when more than one peptide was quantified (Federspiel et al., PLoS Biol. 17(9):e3000437. Doi: 10.1371/journal.pbio.3000437). PRM quantitation data were graphed using the Python Seaborn and Matplotlib libraries.
MRC5 primary human fibroblasts (HFs) (ATCC CCL-171) were used as the model system for HSV-1 and HCMV infections and were cultured in complete growth medium (DMEM supplemented with 10% fetal bovine serum and 1% penicillin-streptomycin antibiotics) at 37° C. and 5% CO2. iSLK.219 cells harboring latent KSHV (a gift from Dr. Britt Glaunsinger, University of California, Berkeley) were grown in complete growth medium supplemented with 500 μg/ml hygromycin (ThermoFisher Scientific, 10687010) at 37° C. and 5% CO2. All cells were used for experiments within a maximum of 10 passages.
Wild type HSV-1 strain 17+ (a gift from Beate Sodeik, Hannover Medical School, Hannover, Germany) was propagated as previously described (Diner et al., 2015). Briefly, PO stocks were generated by electroporating pBAC-HSV-1 into U-2 OS cells. […] In a similar manner, wild type HCMV strain AD169 was produced from BAC electroporation into HFs and working stocks were propagated by infecting HFs at a low level. In both cases, cell-associated virus was released by sonication, combined with supernatant virus, then concentrated by ultracentrifugation (20,000 rpm, 2 hours, 4° C. with SW28 swinging bucket rotor [Beckman Coulter]) over a 10% ficoll (HSV-1) or 20% sorbitol (HCMV) cushion. Virus stock titers were determined by plaque assay for HSV-1 or tissue culture infectious dose (TCID50) for HCMV and infections were performed at a multiplicity of infection (MOI) of 3.
12 hours prior to virus infection or reactivation, cells were treated with either the small molecule drug or DMSO/PBS control at an equivalent volume. […] For infection cycles lasting longer than 24 hours, small molecule drugs were re-added to the cell culture medium every 24 hours. Upon collection, cells were rinsed with PBS, scraped into a microcentrifuge tube, pelleted by centrifugation, and rinsed again with PBS.

For `Nc1ccn(C[C@@H](CO)OCP(=O)(O)O)c(=O)n1` [CDV, cidofovir], the “UL36 (P16767) protein, numerical value of heatmap FIG. 6C” value (shortened to “UL36 (P16767) protein, numerical value”) (timepoint 48) was 0.9304, the “UL37 (P16778) protein, numerical value of heatmap FIG. 6C” value (from here on “UL37 (P16778) protein, numerical value”) (timepoint 48) was 0.8657 and the “UL122 (P19893) protein, numerical value of heatmap FIG. 6C” value (“UL122 (P19893) protein, numerical value” for short) (timepoint 48) was 0.07563. For the same molecule, the “UL123 (P13202) protein, numerical value of heatmap FIG. 6C” value (from here on “UL123 (P13202) protein, numerical value”) (timepoint 48) was 0.8515, the “IRS1 (P09715) protein, numerical value of heatmap FIG. 6C” value (from here on “IRS1 (P09715) protein, numerical value”) (timepoint 72) was 1.017 and the “TRS1 (P09695) protein, numerical value of heatmap FIG. 6C” value (“TRS1 (P09695) protein, numerical value” for short) (timepoint 72) was 0.9014. The “UL13 (P16755) protein, numerical value of heatmap FIG. 6C” value (“UL13 (P16755) protein, numerical value” for short) (timepoint 72) was 0.8575, the “UL36 (P16767) protein, numerical value” value (timepoint 72) was 0.8818 and the “UL37 (P16778) protein, numerical value” value (timepoint 72) was 1.038. The “UL122 (P19893) protein, numerical value” value (timepoint 72) was 0.3738, the “UL123 (P13202) protein, numerical value” value (timepoint 72) was 0.7924 and the “IRS1 (P09715) protein, numerical value” value (timepoint 96) was 0.9536. For the same molecule, the “TRS1 (P09695) protein, numerical value” value (timepoint 96) was 0.7893, the “UL13 (P16755) protein, numerical value” value (timepoint 96) was 0.7965 and the “UL36 (P16767) protein, numerical value” value (timepoint 96) was 0.834. For the same molecule, the “UL37 (P16778) protein, numerical value” value (timepoint 96) was 0.936, the “UL122 (P19893) protein, numerical value” value (timepoint 96) was 0.8676 and the “UL123 (P13202) protein, numerical value” value (timepoint 96) was 0.7732. The “IRS1 (P09715) protein, numerical value” value (timepoint 120) was 1.003, the “TRS1 (P09695) protein, numerical value” value (timepoint 120) was 1.103 and the “UL13 (P16755) protein, numerical value” value (timepoint 120) was 1.075. For the same molecule, the “UL36 (P16767) protein, numerical value” value (timepoint 120) was 1.234, the “UL37 (P16778) protein, numerical value” value (timepoint 120) was 1.212 and the “UL122 (P19893) protein, numerical value” value (timepoint 120) was 1.141. The “UL123 (P13202) protein, numerical value” value (timepoint 120) was 1.074, the “MCP (P16729) protein, numerical value of heatmap FIG. 6C” value (L, timepoint 24) was 0.009303 and the “UL25 (P16761) protein, numerical value of heatmap FIG. 6C” value (L, timepoint 24) was 0.02316. The “UL29 (P16764) protein, numerical value of heatmap FIG. 6C” value (L, timepoint 24) was 0.4352, the “UL31 (P16848) protein, numerical value of heatmap FIG. 6C” value (L, timepoint 24) was 0.2632 and the “UL43 (P16781) protein, numerical value of heatmap FIG. 6C” value (L, timepoint 24) was 0.06898. For the same molecule, the “UL52 (P16793) protein, numerical value of heatmap FIG. 6C” value (L, timepoint 24) was 0.01391, the “UL80 (P16753) protein, numerical value of heatmap FIG. 6C” value (L, timepoint 24) was 0.007269 and the “UL82 (P06726) protein, numerical value of heatmap FIG. 6C” value (L, timepoint 24) was 0.2135. The “UL94 (P16800) protein, numerical value of heatmap FIG. 6C” value (L, timepoint 24) was 0.03193, the “UL99 (P13200) protein, numerical value of heatmap FIG. 6C” value (L, timepoint 24) was 0.01797 and the “UL103 (P16734) protein, numerical value of heatmap FIG. 6C” value (L, timepoint 24) was 0.236. The “UL117 (P16770) protein, numerical value of heatmap FIG. 6C” value (L, timepoint 24) was 0.1983, the “gH (P12824) protein, numerical value of heatmap FIG. 6C” value (L, timepoint 24) was 0.03303 and the “gL (P16832) protein, numerical value of heatmap FIG. 6C” value (L, timepoint 24) was 0.03204. The “gM (P16733) protein, numerical value of heatmap FIG. 6C” value (L, timepoint 24) was 0.0224, the “sp|P16809|IR11_HCMVA (P16809) protein, numerical value of heatmap FIG. 6C” value (L, timepoint 24) was 0.04109 and the “CVC1 (P16799) protein, numerical value of heatmap FIG. 6C” value (L, timepoint 48) was 0.1142. The “MCP (P16729) protein, numerical value of heatmap FIG. 6C” value (L, timepoint 48) was 0.01444, the “TRM2 (P16792) protein, numerical value of heatmap FIG. 6C” value (L, timepoint 48) was 0.0613 and the “UL22A (P16845) protein, numerical value of heatmap FIG. 6C” value (L, timepoint 48) was 0.07025. The “UL25 (P16761) protein, numerical value of heatmap FIG. 6C” value (L, timepoint 48) was 0.06426, the “UL29 (P16764) protein, numerical value of heatmap FIG. 6C” value (L, timepoint 48) was 0.6305 and the “UL31 (P16848) protein, numerical value of heatmap FIG. 6C” value (L, timepoint 48) was 0.2379. For the same molecule, the “UL43 (P16781) protein, numerical value of heatmap FIG. 6C” value (L, timepoint 48) was 0.09529, the “UL52 (P16793) protein, numerical value of heatmap FIG. 6C” value (L, timepoint 48) was 0.08671 and the “UL80 (P16753) protein, numerical value of heatmap FIG. 6C” value (L, timepoint 48) was 0.04081.
